For this experiment, the system named is plasma fibrinogen. In words: Fibrinogen-lowering effect in spontaneously hypercholesterolemia (SHC) rats. Format: in vivo, rat. Here is the method:
Candesartan cilexetil (TCV-116; 0.5% methylcellulose 100 cp suspension; 1 mg/kg (2 ml/kg)) were administered orally to 10-week-old SHC rats once a day for a 6-week period. 0.5% methylcellulose 100 cp suspensions were administered to the control group (vehicle-treated group) in a volume of 2 ml/kg. Fibrinogen concentrations in plasma were measured as follows. At the end of experiments, the blood was withdrawn from aorta abdominalis into 3.8% trisodium citrate solution (Citral, Yamanouchi Pharmaceutical Co.,Ltd., final concentration of 0.38%) and the plasma were prepared by centrifuging at 3000 rpm at room temperature for 20 minutes. The fibrinogen concentration was determined using fibrinogen test RD (Roche Diagnostics) and the clot timer (B-10, Sarstedt, Inc.) with reference to a standard rat fibrinogen (F-6755, Sigma).

On to `CCOc1nc2cccc(C(=O)OC(C)OC(=O)OC3CCCCC3)c2n1Cc1ccc(-c2ccccc2-c2nnn[nH]2)cc1` (centres unmarked) [TCV-116, 1-(cyclohexyloxycarbonyloxy)ethyl 2-ethoxy-1-[[2′-(1H-tetrazol-5-yl)biphenyl-4-yl]methyl]-benzimidazole-7-carboxylate], for which, where the note is “SHC rat plasma, 1 mg/kg/day orally once a day for 6 weeks, Mean ± SE, n = 5, p < 0.01 vs vehicle”, the Fibrinogen level came out at 354.0 ± 29.1 mg/dL. In addition, the “Effect on plasma fibrinogen level versus control group” value (SHC rat, 1 mg/kg, comparison with vehicle-treated group) was “decreased the plasma fibrinogen level of SHC rat significantly”.

For the origin of these results see patent publication US20030187038A1, “Fibrinogen-lowering agents” (priority 2000, published 2003).
